One block for each molecule: values may come before it.
Columns and labels:
[1] = test system: partially nephrectomized mice; test: 5/6 nephrectomy model; assay type: in vivo; design: reduction in UACR / UACR reduction vs vehicle: concentration or dose not given beside the values; details: for UACR reduction vs vehicle: 5/6 nephrectomy model (Example 7, FIG. 8), week one; for reduction in UACR: mono-therapy
Experimental: (§1) 5/6 nephrectomy mice on the 129X1/SvJ background were obtained from Jackson Laboratories, and were received at ChemoCentryx after the surgery was performed at JAX. Under isoflurane anesthesia, two-thirds of the left kidney mass was removed at 5-6 weeks of age. Then, after 7 to 10 days, a right unilateral nephrectomy was performed. The mice were fed a standard chow and had free access to water. Three weeks after the 5/6 nephrectomy, the mice were grouped to ensure a similar starting UAER in each treatment group. […] The RAAS blocker candesartan (AK Scientific, Union City, Calif.) and its vehicle were dosed orally once daily at 5 mg/kg formulated in water. Sparsentan, the dual-acting receptor antagonist for endothelin (A type) and angiotensin II receptors (Type 1) (Murugesan et al, 2005) was synthesized at ChemoCentryx and was dosed orally twice daily at 90 mg/kg formulated in 1% HPMC. The mice were housed individually in metabolic cages for quantitative collection of urinary albumin and creatinine.
(§2) Chemotaxis, calcium mobilization, and radio-ligand binding assays were conducted as previously described (Sullivan et al, 2013; Walters et al, 2010). Inhibition values (IC50) were calculated using non-linear regression with a one-site competition model (GraphPad Prism, GraphPad Software, La Jolla, Calif.). A2 values for assessment of potency in chemotaxis assays denotes the concentration of the antagonist required to right-shift by 2-fold the chemokine dose-response curve. […] Urinary albumin was measured by ELISA (Bethyl Labs, Montgomery, Tex.). Urinary and serum creatinine was measured by LC-MS/MS at ChemoCentryx. The urinary albumin excretion rate (UAER) was calculated as micrograms per 24 h. Blood urea nitrogen (BUN) was measured by Antech Diagnostics (Morrisville, N.C.). The albumin to creatinine ratio (ACR) was calculated as micrograms of albumin per milligram of creatinine.
To corroborated the above findings, another FSGS model mechanistically distinct from the Adriamycin approach was tested, the 5/6 nephrectomy model. Beginning three weeks after the completion of surgery, the mice were treated with Compound 1 or RAAS blocker either alone or in combination. As above, renal function was quantified by measuring the UACR, UAER serum creatinine and BUN levels.

CXCR2 = molecular target: T1, CXCR2 (Homo sapiens, UniProt P25025); test: CXCR2 Neutrophil Calcium Mobilization; assay type: cell-based; details: read-out: Potency (IC50), CXCR2
T1 construct: Human monocytes and neutrophils were isolated from healthy volunteers; host or cells: primary human neutrophils
T1 sequence (P25025 whole entry): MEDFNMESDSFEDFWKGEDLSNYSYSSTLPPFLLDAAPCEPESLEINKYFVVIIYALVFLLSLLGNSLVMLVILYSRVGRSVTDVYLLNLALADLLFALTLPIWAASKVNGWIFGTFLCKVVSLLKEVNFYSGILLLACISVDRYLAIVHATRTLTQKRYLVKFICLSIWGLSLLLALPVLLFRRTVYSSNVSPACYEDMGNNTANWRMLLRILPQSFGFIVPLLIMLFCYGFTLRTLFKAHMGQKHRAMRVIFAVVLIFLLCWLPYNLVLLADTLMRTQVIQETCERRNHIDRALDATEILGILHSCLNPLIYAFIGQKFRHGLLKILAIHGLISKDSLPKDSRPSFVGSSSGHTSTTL
Experimental: as §2

CCR8 = molecular target: T2, CCR8 (Homo sapiens, UniProt P51685); test: 293-CCR8 Calcium Mobilization; assay type: cell-based; details: read-out: Potency (IC50), CCR8
T2 construct: expressed in transfected cells; host or cells: 293
T2 sequence (P51685 whole entry): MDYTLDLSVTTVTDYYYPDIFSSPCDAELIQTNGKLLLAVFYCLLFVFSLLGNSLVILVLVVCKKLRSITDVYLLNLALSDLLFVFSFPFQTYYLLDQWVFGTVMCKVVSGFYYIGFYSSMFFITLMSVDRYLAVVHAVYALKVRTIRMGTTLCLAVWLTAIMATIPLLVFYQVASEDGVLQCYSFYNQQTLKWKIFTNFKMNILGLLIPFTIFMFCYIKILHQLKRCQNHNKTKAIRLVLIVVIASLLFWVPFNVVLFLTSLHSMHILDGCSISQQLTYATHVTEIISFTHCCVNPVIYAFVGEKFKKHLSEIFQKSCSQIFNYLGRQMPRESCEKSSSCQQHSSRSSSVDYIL
Experimental: as §2

CXCR6 = molecular target: T3, CXCR6 (Homo sapiens, UniProt O00574); test: CXCR6 Activated Lymphocyte Buffer Chemotaxis; assay type: cell-based; details: read-out: Potency (IC50), CXCR6
T3 construct: endogenous in cells
T3 sequence (O00574 whole entry): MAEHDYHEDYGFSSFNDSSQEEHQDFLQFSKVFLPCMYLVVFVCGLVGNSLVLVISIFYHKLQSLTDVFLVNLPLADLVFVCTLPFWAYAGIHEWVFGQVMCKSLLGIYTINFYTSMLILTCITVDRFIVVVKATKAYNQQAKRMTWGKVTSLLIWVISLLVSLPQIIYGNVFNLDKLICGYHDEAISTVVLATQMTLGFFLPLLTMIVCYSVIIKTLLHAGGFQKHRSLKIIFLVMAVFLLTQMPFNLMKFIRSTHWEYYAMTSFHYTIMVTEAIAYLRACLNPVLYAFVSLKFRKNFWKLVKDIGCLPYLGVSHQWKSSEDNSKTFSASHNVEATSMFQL
Experimental: as §2

CCR2 [2] = molecular target: T4, CCR2 (Mus musculus, UniProt P51683); test: Inhibition of radio-labeled mJE (CCL2) binding to WEHI-274 cells; details: WEHI-274 murine monocyte cell line endogenously expressing CCR2
T4 construct: WEHI-274 murine monocyte cell line that endogenously expresses CCR2; host or cells: WEHI-274.1
T4 sequence (P51683 whole entry): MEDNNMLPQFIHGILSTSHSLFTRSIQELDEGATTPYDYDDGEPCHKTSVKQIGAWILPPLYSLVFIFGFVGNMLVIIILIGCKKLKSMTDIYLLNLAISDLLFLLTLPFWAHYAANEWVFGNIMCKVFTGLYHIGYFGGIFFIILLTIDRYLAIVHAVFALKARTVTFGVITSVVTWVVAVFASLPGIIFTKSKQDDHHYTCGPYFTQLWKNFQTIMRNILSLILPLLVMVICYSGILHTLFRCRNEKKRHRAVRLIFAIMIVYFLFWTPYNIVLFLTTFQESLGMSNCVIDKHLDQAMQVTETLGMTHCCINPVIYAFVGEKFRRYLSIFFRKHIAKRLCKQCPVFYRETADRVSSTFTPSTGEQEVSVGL
Experimental: as §2

C3aR = molecular target: T5, C3aR (Homo sapiens, UniProt Q16581); test: C3aR Neutrophil Calcium Mobilization; assay type: cell-based; details: read-out: Potency (IC50), C3aR
T5 construct: Human monocytes and neutrophils were isolated from healthy volunteers; host or cells: primary human neutrophils
Experimental: as §2

CCR7 = molecular target: T6, CCR7 (Homo sapiens, UniProt P32248); test: CCR7 Activated Lymphocyte Calcium Mobilization; assay type: cell-based; details: read-out: Potency (IC50), CCR7
T6 construct: endogenous in cells
T6 sequence (P32248 25-378): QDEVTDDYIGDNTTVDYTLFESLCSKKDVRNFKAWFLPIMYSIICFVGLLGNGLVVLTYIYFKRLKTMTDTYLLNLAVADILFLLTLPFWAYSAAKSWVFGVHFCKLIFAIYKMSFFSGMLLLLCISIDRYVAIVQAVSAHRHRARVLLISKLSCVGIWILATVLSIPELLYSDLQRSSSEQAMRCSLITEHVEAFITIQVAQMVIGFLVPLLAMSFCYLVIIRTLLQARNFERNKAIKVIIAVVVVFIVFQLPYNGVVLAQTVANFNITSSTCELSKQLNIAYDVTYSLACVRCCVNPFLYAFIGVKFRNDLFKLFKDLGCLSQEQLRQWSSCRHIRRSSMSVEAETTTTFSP
Experimental: as §2

CXCR1 = molecular target: T7, CXCR1 (Homo sapiens, UniProt P25024); test: CXCR1 Neutrophil Calcium Mobilization; assay type: cell-based; details: read-out: Potency (IC50), CXCR1
T7 construct: Human monocytes and neutrophils were isolated from healthy volunteers; host or cells: primary human neutrophils
T7 sequence (P25024 whole entry): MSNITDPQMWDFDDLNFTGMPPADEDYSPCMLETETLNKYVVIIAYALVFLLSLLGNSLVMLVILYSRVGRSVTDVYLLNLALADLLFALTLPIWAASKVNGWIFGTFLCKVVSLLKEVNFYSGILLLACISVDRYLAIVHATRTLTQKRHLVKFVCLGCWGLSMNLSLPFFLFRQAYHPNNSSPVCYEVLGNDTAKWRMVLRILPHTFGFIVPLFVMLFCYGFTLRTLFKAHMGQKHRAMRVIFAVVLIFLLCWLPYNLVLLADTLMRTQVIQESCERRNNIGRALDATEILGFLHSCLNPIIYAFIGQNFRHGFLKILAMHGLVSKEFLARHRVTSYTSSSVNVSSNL
Experimental: as §2

CXCR3 = molecular target: T8, CXCR3 (Homo sapiens, UniProt P49682); test: CXCR3 Activated Lymphocyte Calcium Mobilization; assay type: cell-based; details: read-out: Potency (IC50), CXCR3
T8 construct: endogenous in cells
T8 sequence (P49682 whole entry): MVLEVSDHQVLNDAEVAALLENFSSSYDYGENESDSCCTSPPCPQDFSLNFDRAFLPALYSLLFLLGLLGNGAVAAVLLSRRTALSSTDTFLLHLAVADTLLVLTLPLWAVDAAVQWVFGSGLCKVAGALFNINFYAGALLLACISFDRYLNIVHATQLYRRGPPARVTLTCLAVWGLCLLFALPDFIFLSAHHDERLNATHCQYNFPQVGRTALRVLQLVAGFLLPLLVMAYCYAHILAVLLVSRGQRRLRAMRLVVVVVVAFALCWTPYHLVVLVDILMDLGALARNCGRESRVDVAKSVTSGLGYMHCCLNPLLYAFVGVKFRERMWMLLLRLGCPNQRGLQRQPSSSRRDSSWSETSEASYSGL
Experimental: as §2

CCR1 = molecular target: T9, CCR1 (Homo sapiens, UniProt P32246); test: CCR1 Monocyte Chemotaxis; assay type: cell-based; details: read-out: Potency (IC50), CCR1
T9 construct: Human monocytes and neutrophils were isolated from healthy volunteers; host or cells: primary human monocytes
T9 sequence (P32246 whole entry): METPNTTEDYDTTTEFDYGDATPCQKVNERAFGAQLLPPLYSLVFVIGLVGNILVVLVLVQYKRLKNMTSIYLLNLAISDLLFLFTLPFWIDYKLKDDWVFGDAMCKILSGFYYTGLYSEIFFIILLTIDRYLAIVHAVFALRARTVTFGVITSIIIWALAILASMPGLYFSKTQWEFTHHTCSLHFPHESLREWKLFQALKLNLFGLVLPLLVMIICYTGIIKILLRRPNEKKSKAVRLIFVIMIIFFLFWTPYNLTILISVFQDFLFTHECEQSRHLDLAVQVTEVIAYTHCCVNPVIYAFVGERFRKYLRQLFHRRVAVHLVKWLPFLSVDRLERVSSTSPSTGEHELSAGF
Experimental: as §2

CXCR5 = molecular target: T10, CXCR5 (Homo sapiens, UniProt P32302); test: Baf3-CXCR5 Calcium Mobilization; assay type: cell-based; details: read-out: Potency (IC50), CXCR5
T10 construct: expressed in transfected cells; host or cells: Baf3
T10 sequence (P32302 whole entry): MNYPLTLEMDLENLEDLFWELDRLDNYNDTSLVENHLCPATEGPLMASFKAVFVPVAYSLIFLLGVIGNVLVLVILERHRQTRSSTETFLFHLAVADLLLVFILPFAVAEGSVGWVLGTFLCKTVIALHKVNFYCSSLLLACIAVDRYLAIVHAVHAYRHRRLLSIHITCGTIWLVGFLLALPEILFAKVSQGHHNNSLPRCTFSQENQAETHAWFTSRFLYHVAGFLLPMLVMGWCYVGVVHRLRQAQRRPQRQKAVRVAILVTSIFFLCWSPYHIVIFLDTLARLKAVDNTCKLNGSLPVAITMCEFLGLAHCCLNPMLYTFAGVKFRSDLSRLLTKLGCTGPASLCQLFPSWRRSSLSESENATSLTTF
Experimental: as §2

[3] = Mouse pharmacokinetic (PK) study; assay type: in vivo; details: male, 129s, plasma, sc, mice, single s.c. injection at 90 mg/kg, 24 hours post-dosing
Experimental: Blood was drawn at 0.5, 2, […], 4, 8, 12, and 24 hours post-dosing. Compound 1 drug level was analyzed by LC-MS/MS at ChemoCentryx with plasma samples.
To determine if Compound 1 was suitable for in vivo experiments, we analyzed its pharmacokinetic profile in mice.

CCR2 [4] = molecular target: T11, CCR2 (Homo sapiens, UniProt P41597); test: CCR2 ThP1 Cell Chemotaxis; assay type: cell-based; details: read-out: Potency (IC50), CCR2
T11 construct: cell lines that either endogenously expressed certain chemokine receptors; host or cells: ThP1
Experimental: as §2

CCR9 = molecular target: T12, CCR9 (Homo sapiens, UniProt P51686); test: CCR9 Molt4 Serum Chemotaxis; assay type: cell-based; details: read-out: Potency (IC50), CCR9
T12 construct: cell lines that either endogenously expressed certain chemokine receptors; endogenous in cells; host or cells: Molt4
T12 sequence (P51686 whole entry): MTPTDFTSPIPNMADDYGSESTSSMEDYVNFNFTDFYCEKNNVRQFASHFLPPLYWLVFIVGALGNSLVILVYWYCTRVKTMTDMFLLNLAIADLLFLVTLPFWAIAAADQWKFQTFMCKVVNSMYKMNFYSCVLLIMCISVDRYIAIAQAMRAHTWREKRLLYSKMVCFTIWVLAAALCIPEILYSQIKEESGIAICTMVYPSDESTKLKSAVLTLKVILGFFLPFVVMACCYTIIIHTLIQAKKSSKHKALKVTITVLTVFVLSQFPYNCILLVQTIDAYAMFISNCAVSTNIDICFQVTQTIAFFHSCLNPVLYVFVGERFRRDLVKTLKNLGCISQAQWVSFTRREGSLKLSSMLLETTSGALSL
Experimental: as §2

CCR6 = molecular target: T13, CCR6 (Homo sapiens, UniProt P51684); test: CCR6 Activated Lymphocyte Calcium Mobilization; assay type: cell-based; details: read-out: Potency (IC50), CCR6
T13 construct: endogenous in cells
Experimental: as §2

CCR10 = molecular target: T14, CCR10 (Homo sapiens, UniProt P46092); test: 293-CCR10 Calcium Mobilization; assay type: cell-based; details: read-out: Potency (IC50), CCR10
T14 construct: expressed in transfected cells; host or cells: 293
T14 sequence (P46092 whole entry): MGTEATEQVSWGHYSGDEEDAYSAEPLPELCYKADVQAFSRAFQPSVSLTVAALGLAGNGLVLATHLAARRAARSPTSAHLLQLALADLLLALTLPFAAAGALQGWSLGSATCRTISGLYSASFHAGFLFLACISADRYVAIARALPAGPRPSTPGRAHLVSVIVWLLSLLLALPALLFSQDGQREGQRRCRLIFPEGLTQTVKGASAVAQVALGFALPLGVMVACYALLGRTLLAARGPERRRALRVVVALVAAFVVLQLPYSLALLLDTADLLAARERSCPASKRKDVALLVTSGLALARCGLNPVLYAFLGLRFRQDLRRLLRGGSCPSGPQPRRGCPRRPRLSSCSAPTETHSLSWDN
Experimental: as §2

C5aR = molecular target: T15, C5aR (Homo sapiens, UniProt P21730); test: C5aR Neutrophil Calcium Mobilization; assay type: cell-based; details: read-out: Potency (IC50), C5aR
T15 construct: Human monocytes and neutrophils were isolated from healthy volunteers; host or cells: primary human neutrophils
T15 sequence (P21730 whole entry): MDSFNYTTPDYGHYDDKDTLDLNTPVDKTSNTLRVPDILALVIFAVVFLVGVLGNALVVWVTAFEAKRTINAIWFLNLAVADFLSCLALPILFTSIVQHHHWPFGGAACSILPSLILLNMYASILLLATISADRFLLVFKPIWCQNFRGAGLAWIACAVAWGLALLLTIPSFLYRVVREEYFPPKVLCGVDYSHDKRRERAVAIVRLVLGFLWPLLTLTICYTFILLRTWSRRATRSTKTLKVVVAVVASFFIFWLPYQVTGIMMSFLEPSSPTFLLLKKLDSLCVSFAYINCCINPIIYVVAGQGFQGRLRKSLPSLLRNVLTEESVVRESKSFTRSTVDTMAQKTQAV
Experimental: as §2

[5] = test system: Adriamycin challenged mice; test: Adriamycin induced FSGS model; assay type: in vivo; details: for UAER: Adriamycin nephropathy model, Compound 1 90 mg/kg s.c. once daily, RAAS blocker 5 mg/kg orally once daily
Experimental: These experiments were performed using female Balb/c mice (Jackson Laboratories, Bar Harbor, Me.). The mice were kept on standard chow and had free access to water. At age of 10 weeks, 7.5 mg/kg Adriamycin (Selleck Chemicals, Houston, Tex.) or saline (control) was injected via tail vein in isoflurane-anesthetized animals (day 0). […] The RAAS blocker Candesartan (AK Scientific, Union City, Calif.) and its vehicle were dosed orally once daily at 5 mg/kg, formulated in water. All dosing started 2 hours prior Adriamycin challenge. The mice were housed individually in metabolic cages for quantitative collection of urinary albumin and creatinine. Chemotaxis, calcium mobilization, and radio-ligand binding assays were conducted as previously described (Sullivan et al, 2013; Walters et al, 2010). Inhibition values (IC50) were calculated using non-linear regression with a one-site competition model (GraphPad Prism, GraphPad Software, La Jolla, Calif.). A2 values for assessment of potency in chemotaxis assays denotes the concentration of the antagonist required to right-shift by 2-fold the chemokine dose-response curve. […] Urinary albumin was measured by ELISA (Bethyl Labs, Montgomery, Tex.). Urinary and serum creatinine was measured by LC-MS/MS at ChemoCentryx. The urinary albumin excretion rate (UAER) was calculated as micrograms per 24 h. Blood urea nitrogen (BUN) was measured by Antech Diagnostics (Morrisville, N.C.). The albumin to creatinine ratio (ACR) was calculated as micrograms of albumin per milligram of creatinine. […] Adriamycin is an oncolytic antibiotic that induces proteinuria and glomerulosclerosis in rodents after a single infusion. […] The level of protection was equal to or better than that of RAAS blockade.

CCR3 = molecular target: T16, CCR3 (Homo sapiens, UniProt P51677); test: 293-CCR3 Calcium Mobilization; assay type: cell-based; details: read-out: Potency (IC50), CCR3
T16 construct: expressed in transfected cells; host or cells: 293
Experimental: as §2

CXCR7 = molecular target: T17, CXCR7 (Homo sapiens, UniProt P25106); test: 293-CXCR7 Radio-ligand Binding; details: read-out: Potency (IC50), CXCR7
T17 construct: expressed in transfected cells; host or cells: 293
T17 sequence (P25106 whole entry): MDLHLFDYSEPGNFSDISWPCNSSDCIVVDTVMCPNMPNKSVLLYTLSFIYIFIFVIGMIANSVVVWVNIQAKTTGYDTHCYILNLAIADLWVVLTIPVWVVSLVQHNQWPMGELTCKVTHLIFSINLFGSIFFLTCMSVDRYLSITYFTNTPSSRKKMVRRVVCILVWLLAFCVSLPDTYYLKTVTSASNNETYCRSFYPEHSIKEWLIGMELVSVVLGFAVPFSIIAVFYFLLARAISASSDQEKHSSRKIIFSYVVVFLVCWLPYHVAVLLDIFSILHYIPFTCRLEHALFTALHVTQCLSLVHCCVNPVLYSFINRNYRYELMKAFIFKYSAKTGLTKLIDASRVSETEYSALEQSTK
Experimental: as §2

CXCR4 = molecular target: T18, CXCR4 (Homo sapiens, UniProt P61073); test: CXCR4 Activated Lymphocyte Calcium Mobilization; assay type: cell-based; details: read-out: Potency (IC50), CXCR4
T18 construct: endogenous in cells
Experimental: as §2

CCR4 = molecular target: T19, CCR4 (Homo sapiens, UniProt P51679); test: CCR4 Activated Lymphocyte Calcium Mobilization; assay type: cell-based; details: read-out: Potency (IC50), CCR4
T19 construct: endogenous in cells
Experimental: as §2

[6] = test system: kidneys of 5/6 nephrectomized mice; test: Histological analysis of kidneys from the 5/6 nephrectomy model; assay type: in vivo
Experimental: as §1, with “Sparsentan, the dual-acting receptor antagonist for endothelin (A type) and angiotensin II receptors (Type 1) (Murugesan et al, 2005) was synthesized at ChemoCentryx and was dosed orally twice daily at 90 mg/kg formulated in 1% HPMC.” left out
The kidneys were collected, fixed in formalin, embedded in paraffin, and cut into 5-μm-thick sections. […] Glomerular hypertrophy, mesangial expansion, glomerular sclerosis, and tubular structure were determined by examination of sections by an observer blinded to the treatment groups.
Fixed kidney sections were obtained from 5/6 nephrectomized mice for pathology. The sections were stained and evaluated to determine whether the Compound 1-mediated improvements in renal function were associated with anatomical changes.

[7] = 5/6 nephrectomy model, comparison with ET1/AT2 dual inhibitor (Table 4), Week 1
[8] = 5/6 nephrectomy model, comparison with ET1/AT2 dual inhibitor (Table 4), Week 2
[9] = 5/6 nephrectomy model, comparison with ET1/AT2 dual inhibitor (Table 4), Week 4
[10] = 5/6 nephrectomy model (Table 3), Week 1, Compound 1 90 mg/kg, RAAS Blocker 5 mg/kg
[11] = 5/6 nephrectomy model (Table 3), Week 2, Compound 1 90 mg/kg, RAAS Blocker 5 mg/kg
[12] = 5/6 nephrectomy model (Table 3), Week 3, Compound 1 90 mg/kg, RAAS Blocker 5 mg/kg

SMILES: CCCCC1=NC2(CCCC2)C(=O)N1Cc1ccc(-c2ccccc2S(=O)(=O)Nc2noc(C)c2C)c(COCC)c1 [ET1/AT2 Dual Blocker, Sparsentan, reference compound]
UACR reduction vs vehicle [1]: 93.5% | UAER [1, 7]: 2.6, p = 0.036 mg/day | UAER [1, 8]: 1.5, p = 0.01 mg/day | UAER [1, 9]: 1.15, p = 0.001 mg/day

IC50 (CXCR2): > 10 µM | IC50 (CCR8): > 10 µM | IC50 (CXCR6): > 10 µM | IC50 (CCR2 [2]): 0.27 µM | IC50 (C3aR): > 10 µM | IC50 (CCR7): > 10 µM | IC50 (CXCR1): > 10 µM | IC50 (CXCR3): > 10 µM | IC50 (CCR1): > 10 µM | IC50 (CXCR5): > 10 µM | concentration at 24 h [3]: ~3.5 µM | IC50 (CCR2 [4]): 0.0005 µM | IC50 (CCR9): > 10 µM | IC50 (CCR6): > 8 µM | IC50 (CCR10): > 10 µM | IC50 (C5aR): > 10 µM | IC50 (CCR3): > 10 µM | IC50 (CXCR7): > 10 µM | IC50 (CXCR4): > 10 µM | IC50 (CCR4): > 10 µM
SMILES: Cc1cnc(C(=O)c2ccnc3[nH]ccc23)c(NS(=O)(=O)c2ccc(Cl)c(C(F)(F)F)c2)c1 [Compound 1]
UACR reduction vs vehicle [1]: 64.8% | UAER [1, 10]: 15.68, p = 0.30 mg/day | UAER [1, 11]: 6.72, p = 0.07 mg/day | UAER [1, 12]: 11.75, p = 0.001 mg/day | UAER [1, 7]: 7.1, p = 0.07 mg/day | UAER [1, 8]: 11.0, p = 0.1 mg/day | UAER [1, 9]: 2.8, p = 0.02 mg/day | UACR, in words ([1]; 5/6 nephrectomy model, four-week study): markedly reduced | reduction in UACR ([1]; 5/6 nephrectomy model, week four): 57% | reduction in UACR ([1]; 5/6 nephrectomy model, week three): 72% | creatinine and BUN, in words ([1]; 5/6 nephrectomy model, with respect to vehicle control, four-week time point): marked reductions | UAER ([5]; Week 1): 26.15, p = 0.06 mg/day | UAER ([5]; Week 2): 24.19, p = 0.032 mg/day | UAER, in words ([5]; Adriamycin treated mice): significant reduction | kidney histology at 400× magnification (glomeruli), in words [6]: decreased glomerular sclerosis, mesangial expansion, hyaline deposits and tubular collapse | kidney histology at 100× magnification, in words ([6]; with respect to vehicle control): reductions in tubular dilation and hyaline deposits

SMILES: CCOc1nc2cccc(C(=O)O)c2n1Cc1ccc(-c2ccccc2-c2nnn[nH]2)cc1 [RAAS Blocker, Candesartan, reference compound]
UACR reduction vs vehicle [1]: 73.4% | UAER [1, 10]: 8.27, p = 0.03 mg/day | UAER [1, 11]: 3.62, p = 0.03 mg/day | UAER [1, 12]: 3.32, p < 0.0001 mg/day | UAER [1, 7]: 9.4, p = 0.27 mg/day | UAER [1, 8]: 7.7, p = 0.06 mg/day | UAER [1, 9]: 1.7, p = 0.02 mg/day | UAER ([5]; Week 1): 39.46, p = 0.16 mg/day | UAER ([5]; Week 2): 66.87 mg/day

— US11382915B2, “Treatment of focal segmental glomerulosclerosis with CCR2 antagonists” (CHEMOCENTRYX, INC., priority 2017, dated 2022)
